Results taken from patent US20230149510A1, “METHOD FOR ALLEVIATING ARTHRITIS USING EPIDERMAL GROWTH FACTOR” (Lovin BioMed Co., Ltd., priority 2021, published 2023).

What was measured:
[1] = system: articular cartilage of the right knee joint, MIA-induced OA; assay: Histopathologic analysis of right knee joint tissue (modified Mankin scoring), MIA-induced OA; assay type: in vivo, Sprague Dawley rats; settings: rats; for morphological observation of articular cartilage of the right knee joint: 30 μL intraarticular on day 3 and day 14, day 28, versus pathological control, data not shown
Experimental: The Sprague Dawley rats were divided into five groups, including one normal control group, one pathological control group, one comparative group, and two experimental groups (i.e., experimental groups 1 to 2) (n=5 rats in each group).
The right knee joint of the respective rat in the pathological control group, the comparative group, and the experimental groups 1 and 2 was intraarticularly injected with 30 μL of a monosodium iodoacetate (MIA) solution (50 g/L, in 0.9% normal saline). In addition, the right knee joint of the respective rat in the normal control group was intraarticularly injected with 30 μL of 0.9% normal saline. […]
The tissue section was subjected to hematoxylin-eosin staining, and Safranin 0 and fast green staining using a staining protocol well-known to those skilled in the art, and was then observed under an optical microscope (Olympus, CKX41) at a magnification of 200×. Two areas of the respective tissue section were randomly selected and photographed, and pathological changes (such as cartilage damage, chondrocyte loss, and proteoglycan loss) in the respective tissue section was assessed according to the modified Mankin scoring system described in Pauli C. et al. (2012), Osteoarthritis Cartilage, 20:476-485. The degrees of cartilage damage, chondrocyte loss, and proteoglycan loss were scored on a scale from 1 to 5. […]
The data thus obtained were analyzed according to the method described in section 1 of the “General Procedures”.

[2] = system: Chick type II collagen (CII)-induced rheumatoid arthritis (RA); assay: Evaluation of RA severity (visual arthritis scoring), collagen-induced RA; assay type: in vivo, DBA/1 mice; settings: mice, 100 μL intraperitoneal once daily for 20 days, scored every 3 days, 21st to 42nd day, FIG. 6
Experimental: Female DBA/1 mice (8 weeks old, with a body weight of approximately 20 g) used in the following experiments were purchased from National Laboratory Animal Center, Taipei City, Taiwan. All the experimental mice were housed in an animal room under the following laboratory conditions: an alternating 12-hour light and 12-hour dark cycle, a temperature maintained at 21° C. to 23° C., and a relative humidity maintained at 45% to 60%. Furthermore, water and feed were provided ad libitum for all the experimental mice. All experimental procedures involving the experimental mice were in compliance with the legal provision of the Institutional Animal Care and Use Committee of National Chung Hsing University, Taiwan, and were carried out according to the Guide for the Care and Use of Laboratory Animals of National Institutes of Health (NIH). […]
At the end of the 21st day after the initial immunization, the pathological symptoms (i.e., erythema and edema in the sole joint, ankle, and knee joint) in the respective mouse was assessed according to the visual arthritis scoring system described in Brand D. D. et al. (2007), Nat. […] Thereafter, the abovementioned visual arthritis scoring system was performed every 3 days until the 42nd day after the initial immunization (i.e., each mouse was scored 8 times). The degree of RA severity was scored on a scale from 1 to 8. […]

| Substance | scale of OA (modified Mankin scoring, scale 1 to 5) ([1]; 30 μL intraarticular on day 3 and day 14, day 28, FIG. 2) | morphological observation of articular cartilage of the right knee joint [1] | severity of RA (visual arthritis score, scale 1 to 8) [2] |
| --- | --- | --- | --- |
| EGF: Epidermal growth factor (Cat. No. 02-108, Joycom Bio-chem) dissolved in PBS, 20 μg/g EGF; given to experimental group 1 (NSDSECPLSHDGYCLHDGVCMYIEALDKYACNCVVGYIGERCQYRDLKWWELR; UniProt P01133 971-1023, looked up) | significantly lower than that determined in the pathological control group | fewer cracks and a smoother surface, and less chondrocyte and proteoglycan loss were observed | increased slowly |
| hyaluronic acid [HA, reference compound] | – | fewer cracks and a smoother surface, and less chondrocyte and proteoglycan loss were observed | increased slowly |
